Assay results as given in patent publication US20220347309A1, “PYRROLOBENZODIAZEPINE RESISTANCE” (ADC THERAPEUTICS SA, priority 2018, published 2022).

Legend:
NCI-N87 wt cells [1] = test: Single dose 2-hour exposure cytotoxicity (MTS); format: cell-based, human; details: single dose for 2 hours, then 144 hours, vs untreated control
Karpas PBDr cells [2] = test: Single dose 2-hour exposure cytotoxicity (MTS); format: cell-based, human; details: 130 μM ADCT-301 (legend: pM) or 280 pM SG3199 for 2 hours, then 96 hours
Experimental: (§1) To investigate growth inhibition under the same conditions under which DNA ICL formation was measured, Karpas-ADCR cells were treated with 130 pM ADCT-301, and Karpas-PBDR cells treated with 280 pM SG3199 for 2 hours, then washed and incubated for 96 hours under normal cell culture conditions. The MTS assay and calculation of % growth compared to the untreated control was carried out as previously described.
(§2) To investigate whether the cross-resistance in ICL formation observed in the Karpas resistant cell lines also correlates with growth inhibition at this dose, ADCR cells were treated with 280 μM SG3199, and PBDR cells treated with 130 μM ADCT-301 for 2 hours, then washed and incubated for 96 hours under normal cell culture conditions. The MTS assay and calculation of % growth compared to the untreated control was carried out as previously described. The results are shown in FIG. 22 for the ADCR line and FIG. 23 for the PBDR line.

Karpas ADCr cells [3] = test: Single dose 2-hour exposure cytotoxicity (MTS); format: cell-based, human; details: 130 pM ADCT-301 or 280 μM SG3199 (legend: pM) for 2 hours, then 96 hours
Experimental: as §1, §2

Karpas PBDr cells [4] = test: DNA interstrand cross-linking, comet assay; format: cell-based, human; details: 130 μM ADCT-301 or 280 μM SG3199 (figure legends: pM) for 2 hours, then 24 hours
Experimental: (§3) The formation of inter-strand cross-links (ICLs) by either ADCT-301 or SG3199 was measured using a modification of the single cell gel electrophoresis (comet) assay (Spanswick V J, Hartley J M, Hartley J A. Measurement of DNA interstrand crosslinking in individual cells using the Single Cell Gel Electrophoresis (Comet) assay. Methods Mol Biol. 613, 267-82 (2010)). Cells were treated with […] ADCT-301 or […] SG3199 for 2 hours, then washed and incubated for 24 hours under normal cell culture conditions. All cells were irradiated with 18 Gy (5 Gy/min for 3.6 min). Comet slides were reviewed under a 20× objective on an epifluorescence microscope equipped with: Hg arc lamp; 580 nm dichroic mirror; and 535 nm excitation and 645 nm emission filters suitable for visualising of propidium iodide staining with a minimum of 50 Comet images acquired per treatment condition. The Olive Tail Moment (OTM) was determined as the product of the tail length and the fraction of total DNA in the tail as recorded by Komet 6 software (Andor Technology, Belfast, UK) and the percentage reduction in OTM calculated according to the formula:
(§4) % decrease in tail moment=[1−(TMdi−TMcu)/(TMci−TMcu)]*100 • [TMdi=Tail Moment drug irradiated; TMcu=TM control un-irradiated; TMci=TM control irradiated]
(§5) The results are shown in FIG. 18 for the ADCR line and FIG. 19 for the PBDR line.

Karpas ADCr cells [5] = test: DNA interstrand cross-linking, comet assay; format: cell-based, human; details: 130 μM ADCT-301 or 280 μM SG3199 (figure legends: pM) for 2 hours, then 24 hours
Experimental: as §3, §4, §5

[6] = system: human tumor cell lines expressing MDR1; details: cited from earlier work
NCI-N87 wt cells [7] = test: MTS in vitro cytotoxicity, 144 h continuous exposure; format: cell-based, human; details: NCI-N87 wt, 144 h continuous exposure, mean; read-out: IC50
Experimental: (§10) To generate a resistant population to either ADCT-502 or SG3199, human gastric cancer NCI-N87 cells (expressing HER2) were incubated with an approximate IC50 dose of the drug for 144 hours. The cells were then washed and returned to fresh medium until normal cell growth was recovered. This process was repeated until a measurable and stable loss in cytotoxic efficacy was established using the MTS assay.
(§11) To measure the in vitro cytotoxicity with the MTS assay, cells were incubated with a 10-fold dilution range of ADCT-502 or SG3199, and incubated with continuous exposure for 144 hours (at least three cell doubling times under normal cell culture conditions). After incubation the CellTiter 960 AQueous One Solution Cell Proliferation Assay (MTS) was used to measure growth inhibition, by adding 20 μl reagent to the cells and incubating for 3-4 hours, then reading the absorbance at 492 nm. Mean % growth of the ADC or PBD treated cells was calculated relative to an untreated control.
(§12) To measure the cross-resistance of the NCI-N87 ADCR cells to the SG3199 PBD warhead, and the PBDR cells to ADCT-502, the in vitro cytotoxicity assay was carried out as described above, treating the cells with the opposite drug molecule to the one with which they were generated.

NCI-N87 ADCr cells = test: Single dose 2-hour exposure cytotoxicity (MTS); format: cell-based, human; details: 1 nM ADCT-502 or 1 nM SG3199 for 2 hours, then 144 hours
Experimental: as §1, with “NCI-N87-ADCR” for “Karpas-ADCR”, “1 nM ADCT-502,” for “130 pM ADCT-301,”, “PBDR” for “Karpas-PBDR”, “1.7 nM” for “280 pM”, “144” for “96”
as §2, with “NCI-N87” for “Karpas”, “1 nM” for “280 μM”, “1.7 nM ADCT-502” for “130 μM ADCT-301”, “144” for “96”, “24” for “22”, “25” for “23”

NCI-N87 PBDr cells = test: Single dose 2-hour exposure cytotoxicity (MTS); format: cell-based, human; details: 1.7 nM ADCT-502 or 1.7 nM SG3199 for 2 hours, then 144 hours
Experimental: as §1, with “NCI-N87-ADCR” for “Karpas-ADCR”, “1 nM ADCT-502,” for “130 pM ADCT-301,”, “PBDR” for “Karpas-PBDR”, “1.7 nM” for “280 pM”, “144” for “96”
as §2, with “NCI-N87” for “Karpas”, “1 nM” for “280 μM”, “1.7 nM ADCT-502” for “130 μM ADCT-301”, “144” for “96”, “24” for “22”, “25” for “23”

[8] = system: NCI-N87 ADCr cells (ADCT-502 acquired resistant); test: MTS in vitro cytotoxicity, 144 h continuous exposure; format: cell-based, human
Experimental: as §10, §11, §12

[9] = system: Karpas PBDr cells (SG3199 acquired resistant Karpas-299); test: MTS in vitro cytotoxicity, 96 h continuous exposure
Experimental: (§6) To generate a resistant population to either ADCT-301 or SG3199, human anaplastic large cell lymphoma Karpas-299 cells (expressing CD25) were incubated with an approximate IC50 dose of the drug for 96 hours. The cells were then washed and returned to fresh medium until normal cell growth was recovered. This process was repeated until a measurable and stable loss in cytotoxic efficacy was established using the MTS assay.
(§7) To measure the in vitro cytotoxicity with the MTS assay, cells were incubated with a 10-fold dilution range of ADCT-301 or SG3199, and incubated with continuous exposure for 96 hours (at least three cell doubling times under normal cell culture conditions). After incubation the […] AQueous One Solution Cell Proliferation Assay (MTS) was used to measure growth inhibition, by adding 20 μl reagent to the cells and incubating for 3-4 hours, then reading the absorbance at 492 nm. Mean % growth of the ADC or PBD treated cells was calculated relative to an untreated control.
(§8) To measure the cross-resistance of the Karpas ADCR cells to the SG3199 PBD warhead, and the PBDR cells to ADCT-301, the in vitro cytotoxicity assay was carried out as described above, treating the cells with the opposite drug molecule to the one with which they were generated.
(§9) To measure the cross-resistance of the Karpas ADCR and PBDR cells to the PBD dimer warhead SG2000, the in vitro cytotoxicity (MTS) assay was carried out as previously described in Example 2.

[10] = system: Karpas ADCr cells (ADCT-301 acquired resistant Karpas-299); test: as above
Experimental: as §6, §7, §8, §9

Structure (SMILES): COc1cc2c(cc1OCCCCCOc1cc3c(cc1OC)C(=O)N1C=C(C)C[C@H]1C=N3)N=C[C@@H]1CC(C)=CN1C2=O [SG3199]
- 2 hr mean % growth (NCI-N87 wt cells [1]): 29.0%
- 2 hr mean % growth (Karpas PBDr cells [2]): 78.5%
- 2 hr mean % growth (Karpas ADCr cells [3]): 86.3%
- % red. OTM (Karpas PBDr cells [4]): 25.7%
- % red. OTM (Karpas ADCr cells [5]): 7.2%
- susceptibility to multidrug resistance mechanisms [6]: susceptible to multidrug resistance mechanisms
- IC50 (NCI-N87 wt cells [7]): 0.0159 nM
- 2 hr mean % growth (NCI-N87 ADCr cells): 57.2%
- 2 hr mean % growth (NCI-N87 PBDr cells): 76.6%
- fold resistance compared to wildtype ([8]; NCI-N87 ADCr vs NCI-N87 wt IC50): 3.8 fold
- IC50 ([8]; NCI-N87 ADCr, 144 h continuous exposure, mean, read-out: IC50): 0.0604 nM
- fold resistance compared to wildtype ([9]; Karpas PBDr vs Karpas wt IC50): 2.9 fold
- IC50 ([9]; read-out: IC50 pM, Karpas PBDr, 96 h continuous exposure, mean): 205 pM
- fold resistance compared to wildtype ([10]; Karpas ADCr vs Karpas wt IC50): 4.4 fold
- IC50 ([10]; read-out: IC50 pM, Karpas ADCr, 96 h continuous exposure, mean): 306 pM
